US11590118B2, “Methods and compositions for treating retina-associated disease using CCR3-inhibitors” (ALKAHEST INC., priority 2017, dated 2023)

Columns and labels:
mouse CCR3 = molecular target: T1, mouse CCR3 (Mus musculus, UniProt P51678); assay: receptor binding assay, mouse CCR3
T1 sequence (P51678 1-359): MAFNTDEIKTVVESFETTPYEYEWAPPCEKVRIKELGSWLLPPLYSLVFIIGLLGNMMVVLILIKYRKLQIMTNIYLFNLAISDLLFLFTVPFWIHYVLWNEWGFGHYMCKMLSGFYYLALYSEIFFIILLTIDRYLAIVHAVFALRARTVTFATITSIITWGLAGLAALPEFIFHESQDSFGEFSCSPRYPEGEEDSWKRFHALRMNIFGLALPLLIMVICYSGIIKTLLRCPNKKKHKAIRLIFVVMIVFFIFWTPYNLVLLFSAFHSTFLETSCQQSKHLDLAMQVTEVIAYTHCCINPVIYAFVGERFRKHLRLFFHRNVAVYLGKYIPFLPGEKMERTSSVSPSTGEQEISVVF
Experimental: (§1) Potencies for several other mammalian species were also determined in different assays. Species included cynomolgus (macaque) monkeys, mouse, rat, and canines.

[1] = system: subfoveal CNV secondary to wAMD; assay: single-arm, open-label clinical study in treatment-naïve wAMD patients, 4 week regimen; type: in vivo, human; settings: 400 mg orally twice daily for 4 weeks
Experimental: Patients with newly diagnosed (e.g. treatment-naïve) subfoveal CNV that was secondary to wAMD were entered into a single-arm, open-label study. Patients orally took 400 mg of the investigational drug of the invention b.o.d. (twice daily) for 4 weeks and had weekly scheduled visits with the physician. The regimen called for […]. After the end of treatment (EoT) or on withdrawal from the study medication, eligible patients could receive standard of care therapy (anti-VEGF therapy). Patients were followed up twice within 4 weeks after EoT. FIG. 2 is a depiction of the clinical trial design. Boxes V1, V2, V3, V4, and V5 indicate patient visits 1 through 5, respectively. Gaps between the boxes indicate the time in days between visits. The box labeled EoT indicates visit 6, or the end of treatment. Visits 7 and 8 occurred during the follow-up (FU) visits.
The primary endpoint was the change from baseline in central retinal thickness (CRT) as determined by spectral domain optical coherence tomography (SD-OCT) on day 29 (visit no. 6). For all primary and secondary endpoints, the value of the last assessment before first intake of study medication was used as the baseline on day 1 (visit no. 2).
CRT was reported as mean (SEM) in units of μm and time as visit number. The retinal layers and thickness was visualized and measured by SD-OCT, and to those having ordinary of skill in the art and trained using OCT equipment, visualization and measurement of the retinal layers involve well-known techniques. […]
The retinal vasculature of the study eye was evaluated via fluorescein angiography (FA). The change in neovascular leakage by FA was determined on Day 29 (visit 6) compared to baseline. […] N is the number of patients evaluated.
Visual acuity was determined using ETDRS charts over time of treatment. The absolute change in numbers of letters read by patients from their baseline levels was evaluated during visits. […]

rat CCR3 = molecular target: T2, rat CCR3 (Rattus norvegicus, UniProt O54814); assay: receptor binding assay, rat CCR3
T2 sequence (O54814 1-359): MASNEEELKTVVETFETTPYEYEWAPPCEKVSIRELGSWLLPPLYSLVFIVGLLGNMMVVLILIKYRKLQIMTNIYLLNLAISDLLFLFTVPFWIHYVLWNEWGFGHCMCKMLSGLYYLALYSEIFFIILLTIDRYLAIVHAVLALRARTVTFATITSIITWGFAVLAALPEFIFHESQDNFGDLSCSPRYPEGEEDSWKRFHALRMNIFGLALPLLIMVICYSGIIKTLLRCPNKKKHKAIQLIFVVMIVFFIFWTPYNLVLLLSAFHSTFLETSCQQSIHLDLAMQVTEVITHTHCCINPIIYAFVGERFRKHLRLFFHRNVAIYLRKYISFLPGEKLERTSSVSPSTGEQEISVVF
Experimental: as §1

human CCR3 [2] = molecular target: T3, human CCR3 (Homo sapiens, UniProt P51677); assay: receptor binding assay, human CCR3
T3 sequence (P51677 1-355): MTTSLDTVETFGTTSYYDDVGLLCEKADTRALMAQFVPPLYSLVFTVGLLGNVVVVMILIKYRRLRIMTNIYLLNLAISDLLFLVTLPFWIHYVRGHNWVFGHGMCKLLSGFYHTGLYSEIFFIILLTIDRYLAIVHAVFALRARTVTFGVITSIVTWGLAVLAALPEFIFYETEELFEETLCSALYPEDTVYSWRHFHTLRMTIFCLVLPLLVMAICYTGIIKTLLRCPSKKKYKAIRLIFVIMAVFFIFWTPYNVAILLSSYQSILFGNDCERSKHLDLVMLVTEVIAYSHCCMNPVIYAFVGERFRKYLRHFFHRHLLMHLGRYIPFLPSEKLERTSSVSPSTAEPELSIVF
Experimental: (§2) The antagonistic potency of the investigational product of the invention was determined in several human CCR3-dependent assays (FIG. 1). […] IC50 for a calcium influx assay using human CCR3-transfected CHEM1-Gα15 cells was determined to be 0.9±0.2 nM.

human CCR3 [3] = molecular target: T3, human CCR3; assay: calcium influx assay using human CCR3-transfected CHEM1-Gα15 cells; type: cell-based
Experimental: as §2

human CCR3 [4] = molecular target: T3, human CCR3; assay: human eotaxin-1 induced eosinophil shape change in human whole blood; type: cell-based; settings: read-out: IC50, antagonism of human eotaxin-1 induced eosinophil shape change
Experimental: as §2

For Cc1cc(C(=O)N(C)C)cc(NC(=O)[C@H]2CCC(=O)N2C2CCN(Cc3ccc(Cl)c(C)c3)CC2)n1 [investigational product of the invention], which IC50 (mouse CCR3) is on record?
The IC50 was 87.3 ± 5.6 nM.

And the Ki (mouse CCR3)?
Its Ki is 124.3 ± 0.9 nM.

And the “change from baseline in central retinal thickness (CRT) by SD-OCT” value ([1]; median or mean CRT through the treatment phase)?
The value was “no significant change from baseline”.

And the “change from baseline in neovascular leakage by fluorescein angiography” value ([1]; median or mean values through the treatment phase)?
The value was “no significant change from baseline”.

And the “best corrected visual acuity (BCVA), change in letters read, ETDRS charts” value ([1]; subset of 8 out of 14 patients, compared to sham control and the larger patient group)?
The value was “significant improvement”.

What about the IC50 (rat CCR3) of the same compound?
The IC50 was 1720 ± 130 nM.

What about the Ki (rat CCR3) of the same compound?
Its Ki is 1490 ± 128 nM.

And the IC50 (human CCR3 [2])?
Its IC50 is 4 ± 1.8 nM.

What about the Ki (human CCR3 [2]) of the same compound?
The Ki was 3.2 ± 0.6 nM.

What about the IC50 (human CCR3 [3]) of the same compound?
Its IC50 is 0.9 ± 0.2 nM.

What about the IC50 (human CCR3 [4]) of the same compound?
The IC50 was 42.5 ± 43.5 nM.
